Data taken from PMC5283573 (Biochemistry, 2016).

Columns and labels:
[1] = biological target: T1, imidazole glycerol phosphate synthase (IGPS), HisH-HisF heterodimer (Thermotoga maritima, UniProt Q9X0C6+Q9X0C8); experiment: glutaminase assay, coupled glutamate dehydrogenase/APAD; type: biochemical
[2] = biological target: T1, imidazole glycerol phosphate synthase (IGPS), HisH-HisF heterodimer; experiment: isothermal titration calorimetry; type: binding

Ki [1]: 900 ± 70 µM
Kd [2]: 1500 ± 300 µM
SMILES: CCC(CNCCO)Nc1nc2c(c(=O)n(C)c(=O)n2C)n1Cc1ccccc1 (centres unmarked) [compound 3, 7-benzyl-8-[(1-{[(2-hydroxyethyl)amino]methyl}propyl)amino]-1,3-dimethyl-2,3,6,7-tetrahydro-1H-2,6-purinedione]
